Source: the supplement of paper PMC10307832

Legend:
Assay in all cases: relative viability (nuclei count vs DMSO), 5 days (fraction); higher = more cells survive
SGI-1776 + Bortezomib = compound: CN1CCC(CNc2ccc3ncc(-c4cccc(OC(F)(F)F)c4)n3n2)CC1 [SGI-1776] + CC(C)C[C@H](NC(=O)[C@H](Cc1ccccc1)NC(=O)c1cnccn1)B(O)O [Bortezomib] (partner 0.002 µM)
How it was run: (§1)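 Lung cancer cell lines, seeded in 1536-well plates, were treated the following day by pin tool with a single drug or with five library-drug doses (not always all listed) in √10 steps on top of a fixed anchor-drug dose. Cells were fixed and nuclei stained in one step after 5 days, and nuclei were counted. Relative viability is the nuclei count for treated wells divided by that for vehicle wells, reported as medians of duplicate plates.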

SGI-1776 + Tozasertib = compound: CN1CCC(CNc2ccc3ncc(-c4cccc(OC(F)(F)F)c4)n3n2)CC1 [SGI-1776] + Cc1cc(Nc2cc(N3CCN(C)CC3)nc(Sc3ccc(NC(=O)C4CC4)cc3)n2)n[nH]1 [Tozasertib] (partner 0.1 µM)
How it was run: as §1

Entinostat + Navitoclax = compound: Nc1ccccc1NC(=O)c1ccc(CNC(=O)OCc2cccnc2)cc1 [Entinostat] + CC1(C)CCC(c2ccc(Cl)cc2)=C(CN2CCN(c3ccc(C(=O)NS(=O)(=O)c4ccc(N[C@H](CCN5CCOCC5)CSc5ccccc5)c(S(=O)(=O)C(F)(F)F)c4)cc3)CC2)C1 [Navitoclax] (partner 0.5 µM)
How it was run: as §1

Entinostat + Pemetrexed = compound: Nc1ccccc1NC(=O)c1ccc(CNC(=O)OCc2cccnc2)cc1 [Entinostat] + Nc1nc2[nH]cc(CCc3ccc(C(=O)N[C@@H](CCC(=O)O)C(=O)O)cc3)c2c(=O)[nH]1 [Pemetrexed] (partner 0.2 µM)
How it was run: as §1

Row | Cell Line | relative viability (SGI-1776 + Bortezomib; first compound 0.08 µM) | relative viability (SGI-1776 + Bortezomib; first compound 0.8 µM) | relative viability (SGI-1776 + Bortezomib; first compound 2.53 µM) | relative viability (SGI-1776 + Bortezomib; first compound 8 µM) | relative viability (SGI-1776 + Tozasertib; first compound 0.08 µM) | relative viability (SGI-1776 + Tozasertib; first compound 0.8 µM) | relative viability (SGI-1776 + Tozasertib; first compound 2.53 µM) | relative viability (SGI-1776 + Tozasertib; first compound 8 µM) | relative viability (Entinostat + Navitoclax; first compound 0.02 µM) | relative viability (Entinostat + Navitoclax; first compound 0.06325 µM) | relative viability (Entinostat + Navitoclax; first compound 0.2 µM) | relative viability (Entinostat + Navitoclax; first compound 0.6325 µM) | relative viability (Entinostat + Navitoclax; first compound 2 µM) | relative viability (Entinostat + Pemetrexed; first compound 0.02 µM) | relative viability (Entinostat + Pemetrexed; first compound 0.06325 µM) | relative viability (Entinostat + Pemetrexed; first compound 0.2 µM) | relative viability (Entinostat + Pemetrexed; first compound 0.6325 µM) | relative viability (Entinostat + Pemetrexed; first compound 2 µM)
1 | NCI-H1734 | 0.903 | 1.11 | 0.88 | 0.739 | 0.245 | 0.226 | 0.246 | 0.219 | 0.87 | 0.874 | 0.86 | 0.701 | 0.412 | 0.436 | 0.419 | 0.492 | 0.414 | 0.382
2 | EKVX | 0.98 | 1.05 | 1.14 | 0.972 | 0.4 | 0.398 | 0.307 | 0.235 | 0.896 | 0.835 | 0.899 | 0.643 | 0.457 | 0.402 | 0.376 | 0.385 | 0.344 | 0.273
3 | NCI-H520 | 0.859 | 0.776 | 0.716 | 0.22 | 0.436 | 0.442 | 0.427 | 0.385 | 1.02 | 1.02 | 1.21 | 0.916 | 0.456 | 0.644 | 0.712 | 0.875 | 0.689 | 0.418
4 | LOU-NH91 | 0.482 | 0.565 | 0.489 | 0.458 | 0.711 | 0.594 | 0.459 | 0.341 | 0.72 | 0.721 | 0.625 | 0.428 | 0.315 | 0.381 | 0.333 | 0.326 | 0.341 | 0.379
5 | COR-L23 | 1.13 | 0.937 | 0.971 | 0.846 | 0.204 | 0.156 | 0.115 | 0.11 | 0.86 | 0.8 | 0.865 | 0.441 | 0.123 | 0.21 | 0.184 | 0.197 | 0.179 | 0.167
